Numbers after ± are expanded uncertainties.

Normal melting temperature data for 1 molecule are collected here from the NIST ThermoML archive (doi:10.1016/j.tca.2014.11.008).

The conditions of the series: Crystal; visual observation.

In the case of `O=C(O)c1ccsc1` [β-thiophenecarboxylic acid], the Normal melting temperature was 138.70 ± 1.3 °C.
